Measured values from patent publication US9409905B2, “Antibacterial compounds and methods for use” (PTC THERAPEUTICS, INC., priority 2011, dated 2016).
Values after ≈ are worked out from the molar mass of the structure shown.

Legend:
[1] = system: Escherichia coli (E. coli) BAS849; assay: Antibacterial activity, microbroth dilution MIC (Table 1); assay type: cell-based; conditions: microbroth dilution, super sensitive Gram-negative E. coli BAS849, read-out: MIC, BAS849
Outline: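 Broth microdilution against S. aureus 29213, E. coli 25922 and hypersensitive E. coli BAS849. MIC in μg/mL is the lowest drug concentration preventing macroscopically visible growth under test conditions.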

[2] = system: Staphylococcus aureus (S. aureus) 29213; assay: as above; assay type: cell-based; conditions: microbroth dilution, Gram-positive S. aureus 29213, read-out: MIC, 29213
Outline: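 Read-out: visual absence of growth. The lowest concentration meeting this gives the MIC, expressed in μg/mL, with microbroth dilution as the method.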

E. coli 25922 = assay: as above; assay type: cell-based, Escherichia coli; conditions: Escherichia coli; microbroth dilution; control Gram-negative E. coli 25922 strain; read-out: MIC, 25922
Outline: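 Broth microdilution; endpoint = no macroscopic growth; value = lowest inhibiting concn, μg/mL.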

E. coli LZ3111 = assay: Antibacterial activity, MIC, quinolone resistant strain (Table 2); assay type: cell-based; conditions: Escherichia coli, LZ3111, read-out: MIC LZ3111
Outline: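 Microbroth dilution method; MIC (μg/mL) is the lowest drug concentration preventing macroscopically visible growth under test conditions.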

E. coli ELZ4000 = assay: Antibacterial activity, MIC, multi-drug resistant clinical isolate (Table 3); assay type: cell-based; conditions: Escherichia coli, ELZ4000, read-out: MIC ELZ4000
Outline: (§1)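 Broth microdilution assay; MIC reported in μg/mL as the lowest drug concentration preventing macroscopically visible growth under test conditions.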

E. coli ELZ4251 = assay: as above; assay type: cell-based; conditions: Escherichia coli
Outline: as §1

[3] = system: Acinetobacter baumannii (A. baumannii) BAA747; assay: Antibacterial activity, MIC (Table 4); assay type: cell-based; conditions: A. baumannii BAA747, read-out: MIC, BAA747
Outline: (§2)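 MIC (μg/mL) by microbroth dilution, taken as the lowest drug concentration preventing macroscopically visible growth. MXX strains are multi-drug resistant clinical isolates.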

[4] = system: Klebsiella pneumoniae (K. pneumoniae) 35657; assay: Antibacterial activity, MIC (Table 4); assay type: cell-based; conditions: K. pneumoniae 35657, read-out: MIC, 35657
Outline: as §2

A. baumannii MXX2240 = assay: Antibacterial activity, MIC, resistant strain (Table 4); assay type: cell-based; conditions: Acinetobacter baumannii, MXX2240; resistant A. baumannii MMX2240, multi-drug resistant clinical isolate; read-out: MIC, MMX2240
Outline: as §2

K. pneumoniae MXX1232 = assay: as above; assay type: cell-based; conditions: Klebsiella pneumoniae, MXX1232; resistant K. pneumoniae MMX1232, multi-drug resistant clinical isolate; read-out: MIC, MMX1232
Outline: as §2

[5] = system: Pseudomonas aeruginosa (P. aeruginosa) 27853; assay: Antibacterial activity, MIC (Table 5); assay type: cell-based; conditions: P. aeruginosa 27853, read-out: MIC, 27853
Outline: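 Activity was measured by microbroth dilution. The MIC, in μg/mL, is the lowest drug concentration that prevents macroscopically visible growth under the test conditions.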

[6] = system: Haemophilus influenzae (H. influenzae) 49247; assay: Antibacterial activity, MIC (Table 6); assay type: cell-based
Outline: (§3)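 Broth microdilution; MIC (μg/mL) = lowest concentration with no macroscopically visible growth.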

[7] = system: Moraxella catarrhalis (M. catarrhalis) 25238; assay: Antibacterial activity, MIC (Table 7); assay type: cell-based
Outline: as §3

[8] = system: Neisseria meningitidis (N. meningitidis) 13090; assay: Antibacterial activity, MIC (Table 8); assay type: cell-based
Outline: as §3

| Structure (SMILES) | MIC [1] [µg/mL] | MIC [2] [µg/mL] | MIC (E. coli 25922) [µg/mL] | MIC (E. coli LZ3111) [µg/mL] | MIC (E. coli ELZ4000) [µg/mL] | MIC (E. coli ELZ4251) [µg/mL] | MIC [3] [µg/mL] | MIC [4] [µg/mL] | MIC (A. baumannii MXX2240) [µg/mL] | MIC (K. pneumoniae MXX1232) [µg/mL] | MIC [5] [µg/mL] | MIC [6] [µg/mL] | MIC [7] [µg/mL] | MIC [8] [µg/mL] |
| --- | --- | --- | --- | --- | --- | --- | --- | --- | --- | --- | --- | --- | --- | --- |
| CCc1c(-c2ccc3c(c2)cc(CNC2(C)CC2)n3C)[nH]c(=O)c(C(=O)O)c1O [Cpd 275, 5-ethyl-4-hydroxy-6-(1-methyl-2-((1-methylcyclopropylamino)methyl)-1H-indol-5-yl)-2-oxo-1,2-dihydropyridine-3-carboxylic acid] | < 1 | 3.5 to 12.5 (≈ 8.85 to 31.6 µM) | < 1 | < 1 | 1 to 3.5 (≈ 2.53 to 8.85 µM) | 1 to 3.5 (≈ 2.53 to 8.85 µM) | < 1 | 1 to 3.5 (≈ 2.53 to 8.85 µM) | < 1 | 12.5 to 150 (≈ 31.6 to 379 µM) | 3.5 to 12.5 (≈ 8.85 to 31.6 µM) | < 1 | < 1 | < 1 |
| CCc1c(-c2ccc3c(c2)cc(CN2C[C@H]4CC[C@@H](N)[C@H]4C2)n3C)[nH]c(=O)c(C(=O)O)c1O [Cpd 276, 6-(2-(((3aR,4R,6aS)-4-aminohexahydrocyclopenta[c]pyrrol-2(1H)-yl)methyl)-1-methyl-1H-indol-5-yl)-5-ethyl-4-hydroxy-2-oxo-1,2-dihydropyridine-3-carboxylic acid] | < 1 | 3.5 to 12.5 (≈ 7.77 to 27.7 µM) | 1 to 3.5 (≈ 2.22 to 7.77 µM) | 3.5 to 12.5 (≈ 7.77 to 27.7 µM) | 12.5 to 150 (≈ 27.7 to 333 µM) | 12.5 to 150 (≈ 27.7 to 333 µM) | 12.5 to 150 (≈ 27.7 to 333 µM) | 1 to 3.5 (≈ 2.22 to 7.77 µM) | 12.5 to 150 (≈ 27.7 to 333 µM) | 12.5 to 150 (≈ 27.7 to 333 µM) | 12.5 to 150 (≈ 27.7 to 333 µM) | 1 to 3.5 (≈ 2.22 to 7.77 µM) | 1 to 3.5 (≈ 2.22 to 7.77 µM) | < 1 |
| C#CCNCc1cc2cc(-c3[nH]c(=O)c(C(=O)O)c(O)c3CC)ccc2n1C.Cl [Cpd 277, 5-ethyl-4-hydroxy-6-(1-methyl-2-((prop-2-ynylamino)methyl)-1H-indol-5-yl)-2-oxo-1,2-dihydropyridine-3-carboxylic acid hydrochloride] | < 1 | 1 to 3.5 | < 1 | 1 to 3.5 | 12.5 to 150 | 3.5 to 12.5 | 1 to 3.5 | 1 to 3.5 | 12.5 to 150 | 12.5 to 150 | 12.5 to 150 | < 1 | < 1 | < 1 |
| CCc1c(-c2ccc3c(c2)cc(CN2C[C@H]4CCC[C@@H](N(C)C)[C@H]4C2)n3C)[nH]c(=O)c(C(=O)O)c1O [Cpd 279, 6-(2-(((3aR,4R,7aS)-4-(dimethylamino)-1H-isoindol-2(3H,3aH,4H,5H,6H,7H,7aH)-yl)methyl)-1-methyl-1H-indol-5-yl)-5-ethyl-4-hydroxy-2-oxo-1,2-dihydropyridine-3-carboxylic acid] | < 1 | 3.5 to 12.5 (≈ 7.1 to 25.4 µM) | 1 to 3.5 (≈ 2.03 to 7.1 µM) | 1 to 3.5 (≈ 2.03 to 7.1 µM) | 12.5 to 150 (≈ 25.4 to 304 µM) | 12.5 to 150 (≈ 25.4 to 304 µM) | 1 to 3.5 (≈ 2.03 to 7.1 µM) | 1 to 3.5 (≈ 2.03 to 7.1 µM) | 12.5 to 150 (≈ 25.4 to 304 µM) | 12.5 to 150 (≈ 25.4 to 304 µM) | 12.5 to 150 (≈ 25.4 to 304 µM) | 1 to 3.5 (≈ 2.03 to 7.1 µM) | 1 to 3.5 (≈ 2.03 to 7.1 µM) | < 1 |
| CCc1c(-c2ccc3c(c2)cc(CN2C[C@H]4CCC[C@@H](NC)[C@H]4C2)n3C)[nH]c(=O)c(C(=O)O)c1O [Cpd 282, 5-ethyl-4-hydroxy-6-(1-methyl-2-(((3aR,4R,7aS)-4-(methylamino)-1H-isoindol-2(3H,3aH,4H,5H,6H,7H,7aH)-yl)methyl)-1H-indol-5-yl)-2-oxo-1,2-dihydropyridine-3-carboxylic acid] | < 1 | 12.5 to 150 (≈ 26.1 to 313 µM) | < 1 | 1 to 3.5 (≈ 2.09 to 7.31 µM) | 12.5 to 150 (≈ 26.1 to 313 µM) | 3.5 to 12.5 (≈ 7.31 to 26.1 µM) | 12.5 to 150 (≈ 26.1 to 313 µM) | 1 to 3.5 (≈ 2.09 to 7.31 µM) | 12.5 to 150 (≈ 26.1 to 313 µM) | 12.5 to 150 (≈ 26.1 to 313 µM) | 12.5 to 150 (≈ 26.1 to 313 µM) | 1 to 3.5 (≈ 2.09 to 7.31 µM) | 3.5 to 12.5 (≈ 7.31 to 26.1 µM) | 1 to 3.5 (≈ 2.09 to 7.31 µM) |
| CCc1c(-c2ccc3c(c2)cc(CN2C[C@H]4C[C@@H](N(C)C)C[C@H]4C2)n3C)[nH]c(=O)c(C(=O)O)c1O [Cpd 285, 6-(2-(((3aR,5r,6aS)-5-(dimethylamino)hexahydrocyclopenta[c]pyrrol-2(1H)-yl)methyl)-1-methyl-1H-indol-5-yl)-5-ethyl-4-hydroxy-2-oxo-1,2-dihydropyridine-3-carboxylic acid] | < 1 | 12.5 to 150 (≈ 26.1 to 313 µM) | 1 to 3.5 (≈ 2.09 to 7.31 µM) | 1 to 3.5 (≈ 2.09 to 7.31 µM) | 12.5 to 150 (≈ 26.1 to 313 µM) | 3.5 to 12.5 (≈ 7.31 to 26.1 µM) | 3.5 to 12.5 (≈ 7.31 to 26.1 µM) | 1 to 3.5 (≈ 2.09 to 7.31 µM) | 12.5 to 150 (≈ 26.1 to 313 µM) | 12.5 to 150 (≈ 26.1 to 313 µM) | 12.5 to 150 (≈ 26.1 to 313 µM) | 1 to 3.5 (≈ 2.09 to 7.31 µM) | 1 to 3.5 (≈ 2.09 to 7.31 µM) | < 1 |
| CCc1c(-c2ccc3c(c2)cc(CN)n3C)[nH]c(=O)c(C(=O)O)c1O [Cpd 290, 6-(2-(aminomethyl)-1-methyl-1H-indol-5-yl)-5-ethyl-4-hydroxy-2-oxo-1,2-dihydropyridine-3-carboxylic acid] | < 1 | 3.5 to 12.5 (≈ 10.3 to 36.6 µM) | < 1 | 1 to 3.5 (≈ 2.93 to 10.3 µM) | 3.5 to 12.5 (≈ 10.3 to 36.6 µM) | 3.5 to 12.5 (≈ 10.3 to 36.6 µM) | 1 to 3.5 (≈ 2.93 to 10.3 µM) | 3.5 to 12.5 (≈ 10.3 to 36.6 µM) | 12.5 to 150 (≈ 36.6 to 439 µM) | 12.5 to 150 (≈ 36.6 to 439 µM) | 1 to 3.5 (≈ 2.93 to 10.3 µM) | 1 to 3.5 (≈ 2.93 to 10.3 µM) | 1 to 3.5 (≈ 2.93 to 10.3 µM) | < 1 |
| CCc1c(-c2ccc3c(c2)cc(CNCc2ccc(OC)cc2)n3C)[nH]c(=O)c(C(=O)O)c1O [Cpd 291, 5-ethyl-4-hydroxy-6-(2-((4-methoxybenzylamino)methyl)-1-methyl-1H-indol-5-yl)-2-oxo-1,2-dihydropyridine-3-carboxylic acid] | < 1 | 3.5 to 12.5 (≈ 7.58 to 27.1 µM) | < 1 | 1 to 3.5 (≈ 2.17 to 7.58 µM) | 12.5 to 150 (≈ 27.1 to 325 µM) | 12.5 to 150 (≈ 27.1 to 325 µM) | 1 to 3.5 (≈ 2.17 to 7.58 µM) | 3.5 to 12.5 (≈ 7.58 to 27.1 µM) | 1 to 3.5 (≈ 2.17 to 7.58 µM) | 12.5 to 150 (≈ 27.1 to 325 µM) | 12.5 to 150 (≈ 27.1 to 325 µM) | < 1 | < 1 | < 1 |
| CCc1c(-c2ccc3c(c2)cc2n3CCNC2)[nH]c(=O)c(C(=O)O)c1O [Cpd 305, 5-ethyl-4-hydroxy-2-oxo-6-(1,2,3,4-tetrahydropyrazino[1,2-a]indol-8-yl)-1,2-dihydropyridine-3-carboxylic acid] | < 1 | 3.5 to 12.5 (≈ 9.9 to 35.4 µM) | < 1 | 3.5 to 12.5 (≈ 9.9 to 35.4 µM) | 12.5 to 150 (≈ 35.4 to 424 µM) | 3.5 to 12.5 (≈ 9.9 to 35.4 µM) | 1 to 3.5 (≈ 2.83 to 9.9 µM) | < 1 | 12.5 to 150 (≈ 35.4 to 424 µM) | 12.5 to 150 (≈ 35.4 to 424 µM) | 3.5 to 12.5 (≈ 9.9 to 35.4 µM) | < 1 | < 1 | < 1 |
